Source: the supplement of paper PMC10307832

Experiments:
Assay in all cases: relative viability (nuclei count vs DMSO), 5 days (fraction); higher = more cells survive
201T = tested on: 201T
In short: (§1)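 Lung cancer cell lines in 1536-well plates were dosed by pin tool the day after seeding, either with one drug alone or with a fixed anchor-drug dose plus five library-drug doses (not always all listed) in √10 steps. After 5 days, cells were fixed and their nuclei stained in one step (final 0.05% Triton X-100, 1% formaldehyde, 1 ug/ml Hoechst), then counted on 4× images. Relative viability is the nuclei count in treated wells divided by that in vehicle wells. Values are medians of duplicate plates.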

A-427 = tested on: A-427
In short: as §1

BEN = tested on: BEN
In short: as §1

COR-L23 = tested on: COR-L23
In short: as §1

EKVX = tested on: EKVX
In short: as §1

EMC-BAC-2 = tested on: EMC-BAC-2
In short: as §1

EPLC-272H = tested on: EPLC-272H
In short: as §1

HCC-44 = tested on: HCC-44
In short: as §1

LCLC-103H = tested on: LCLC-103H
In short: as §1

LXF-289 = tested on: LXF-289
In short: as §1

NCI-H1650 = tested on: NCI-H1650
In short: as §1

NCI-H1651 = tested on: NCI-H1651
In short: as §1

NCI-H1793 = tested on: NCI-H1793
In short: as §1

NCI-H2023 = tested on: NCI-H2023
In short: as §1

NCI-H2087 = tested on: NCI-H2087
In short: as §1

NCI-H2126 = tested on: NCI-H2126
In short: as §1

NCI-H3122 = tested on: NCI-H3122
In short: as §1

NCI-H322M = tested on: NCI-H322M
In short: as §1

NCI-H358 = tested on: NCI-H358
In short: as §1

SK-LU-1 = tested on: SK-LU-1
In short: as §1

SW 1573 = tested on: SW 1573
In short: as §1

UMC-11 = tested on: UMC-11
In short: as §1

`C=C1C(=O)O[C@@H](CCCCCCCC)[C@@H]1C(=O)O` [C-75] + CC(=O)c1c(C)c2cnc(Nc3ccc(N4CCNCC4)cn3)nc2n(C2CCCC2)c1=O [Palbociclib] (partner 0.5 µM) gave a relative viability (201T; first compound 0.08 µM) of 0.377, a relative viability (201T; first compound 0.253 µM) of 0.374 and a relative viability (201T; first compound 0.8 µM) of 0.336. For the same molecule, the relative viability (201T; first compound 2.53 µM) was 0.3, the relative viability (201T; first compound 8 µM) was 0.347 and the relative viability (A-427; first compound 0.08 µM) was 0.531. The relative viability (A-427; first compound 0.253 µM) was 0.468, the relative viability (A-427; first compound 0.8 µM) was 0.49 and the relative viability (A-427; first compound 2.53 µM) was 0.464. It also gave a relative viability (A-427; first compound 8 µM) of 0.523, a relative viability (BEN; first compound 0.08 µM) of 0.509 and a relative viability (BEN; first compound 0.253 µM) of 0.483. It also gave a relative viability (BEN; first compound 0.8 µM) of 0.46, a relative viability (BEN; first compound 2.53 µM) of 0.375 and a relative viability (BEN; first compound 8 µM) of 0.452. The relative viability (COR-L23; first compound 0.08 µM) was 0.353, the relative viability (COR-L23; first compound 0.253 µM) was 0.305 and the relative viability (COR-L23; first compound 0.8 µM) was 0.255. For the same molecule, the relative viability (COR-L23; first compound 2.53 µM) was 0.24, the relative viability (COR-L23; first compound 8 µM) was 0.28 and the relative viability (EKVX; first compound 0.08 µM) was 0.4. The relative viability (EKVX; first compound 0.253 µM) was 0.307, the relative viability (EKVX; first compound 0.8 µM) was 0.383 and the relative viability (EKVX; first compound 8 µM) was 0.425. For the same molecule, the relative viability (EMC-BAC-2; first compound 0.08 µM) was 0.522, the relative viability (EMC-BAC-2; first compound 0.253 µM) was 0.505 and the relative viability (EMC-BAC-2; first compound 0.8 µM) was 0.515. For the same molecule, the relative viability (EMC-BAC-2; first compound 2.53 µM) was 0.438, the relative viability (EMC-BAC-2; first compound 8 µM) was 0.521 and the relative viability (EPLC-272H; first compound 0.08 µM) was 0.312. The relative viability (EPLC-272H; first compound 0.253 µM) was 0.387, the relative viability (EPLC-272H; first compound 0.8 µM) was 0.333 and the relative viability (EPLC-272H; first compound 2.53 µM) was 0.244. The relative viability (EPLC-272H; first compound 8 µM) was 0.365, the relative viability (HCC-44; first compound 0.08 µM) was 0.971 and the relative viability (HCC-44; first compound 0.253 µM) was 1.1. The relative viability (HCC-44; first compound 0.8 µM) was 1.02, the relative viability (HCC-44; first compound 2.53 µM) was 0.956 and the relative viability (HCC-44; first compound 8 µM) was 0.996. For the same molecule, the relative viability (LCLC-103H; first compound 0.08 µM) was 0.447, the relative viability (LCLC-103H; first compound 0.253 µM) was 0.428 and the relative viability (LCLC-103H; first compound 0.8 µM) was 0.499. It also gave a relative viability (LCLC-103H; first compound 2.53 µM) of 0.353, a relative viability (LCLC-103H; first compound 8 µM) of 0.451 and a relative viability (LXF-289; first compound 0.08 µM) of 0.567. For the same molecule, the relative viability (LXF-289; first compound 0.253 µM) was 0.553, the relative viability (LXF-289; first compound 0.8 µM) was 0.597 and the relative viability (LXF-289; first compound 2.53 µM) was 0.604. For the same molecule, the relative viability (LXF-289; first compound 8 µM) was 0.621, the relative viability (NCI-H1650; first compound 0.08 µM) was 0.431 and the relative viability (NCI-H1650; first compound 0.253 µM) was 0.414. It also gave a relative viability (NCI-H1650; first compound 0.8 µM) of 0.342, a relative viability (NCI-H1650; first compound 8 µM) of 0.38 and a relative viability (NCI-H1651; first compound 0.08 µM) of 0.509. For the same molecule, the relative viability (NCI-H1651; first compound 0.253 µM) was 0.521, the relative viability (NCI-H1651; first compound 0.8 µM) was 0.521 and the relative viability (NCI-H1651; first compound 2.53 µM) was 0.476. It also gave a relative viability (NCI-H1651; first compound 8 µM) of 0.55, a relative viability (NCI-H1793; first compound 0.08 µM) of 0.278 and a relative viability (NCI-H1793; first compound 0.253 µM) of 0.311. For the same molecule, the relative viability (NCI-H1793; first compound 2.53 µM) was 0.267, the relative viability (NCI-H1793; first compound 8 µM) was 0.306 and the relative viability (NCI-H2023; first compound 0.08 µM) was 0.395. The relative viability (NCI-H2023; first compound 0.253 µM) was 0.449, the relative viability (NCI-H2023; first compound 0.8 µM) was 0.358 and the relative viability (NCI-H2023; first compound 2.53 µM) was 0.244. It also gave a relative viability (NCI-H2023; first compound 8 µM) of 0.276, a relative viability (NCI-H2087; first compound 0.08 µM) of 0.239 and a relative viability (NCI-H2087; first compound 0.253 µM) of 0.232. The relative viability (NCI-H2087; first compound 0.8 µM) was 0.239, the relative viability (NCI-H2087; first compound 2.53 µM) was 0.209 and the relative viability (NCI-H2087; first compound 8 µM) was 0.217. For the same molecule, the relative viability (NCI-H2126; first compound 0.08 µM) was 0.348, the relative viability (NCI-H2126; first compound 0.253 µM) was 0.35 and the relative viability (NCI-H2126; first compound 0.8 µM) was 0.335. The relative viability (NCI-H2126; first compound 2.53 µM) was 0.349, the relative viability (NCI-H2126; first compound 8 µM) was 0.339 and the relative viability (NCI-H3122; first compound 0.08 µM) was 0.18. The relative viability (NCI-H3122; first compound 0.253 µM) was 0.193, the relative viability (NCI-H3122; first compound 0.8 µM) was 0.153 and the relative viability (NCI-H3122; first compound 2.53 µM) was 0.18. For the same molecule, the relative viability (NCI-H3122; first compound 8 µM) was 0.213, the relative viability (NCI-H322M; first compound 0.08 µM) was 0.481 and the relative viability (NCI-H322M; first compound 0.253 µM) was 0.525. It also gave a relative viability (NCI-H322M; first compound 0.8 µM) of 0.479, a relative viability (NCI-H322M; first compound 8 µM) of 0.481 and a relative viability (NCI-H358; first compound 0.08 µM) of 0.137. The relative viability (NCI-H358; first compound 0.253 µM) was 0.135, the relative viability (NCI-H358; first compound 0.8 µM) was 0.147 and the relative viability (NCI-H358; first compound 8 µM) was 0.135. It also gave a relative viability (SK-LU-1; first compound 0.08 µM) of 0.384, a relative viability (SK-LU-1; first compound 0.253 µM) of 0.43 and a relative viability (SK-LU-1; first compound 0.8 µM) of 0.429. The relative viability (SK-LU-1; first compound 2.53 µM) was 0.387, the relative viability (SK-LU-1; first compound 8 µM) was 0.384 and the relative viability (SW 1573; first compound 0.08 µM) was 0.357. The relative viability (SW 1573; first compound 0.253 µM) was 0.394, the relative viability (SW 1573; first compound 0.8 µM) was 0.47 and the relative viability (SW 1573; first compound 2.53 µM) was 0.423. For the same molecule, the relative viability (SW 1573; first compound 8 µM) was 0.351, the relative viability (UMC-11; first compound 0.08 µM) was 0.308 and the relative viability (UMC-11; first compound 0.253 µM) was 0.315. The relative viability (UMC-11; first compound 0.8 µM) was 0.321, the relative viability (UMC-11; first compound 2.53 µM) was 0.351 and the relative viability (UMC-11; first compound 8 µM) was 0.268.
